Laboratory results taken from publication PMC9861623, “New Ferulic Acid and Amino Acid Derivatives with Increased Cosmeceutical and Pharmaceutical Potential” (Pharmaceutics, 2022).
“And” between values parts separate entries of the source, which are not always exact repeats. Equal values may be shown once.

Columns and labels:
[1] = DPPH antioxidant activity of acceptor fluid after 24 h permeation; parameters: species or system pig; details: after 24 h penetration
Protocol: (§1) To determine the antioxidant capacity of ferulic acid and its derivatives the DPPH method was used. The analyses were performed using the Hitachi UV-Vis Spectrophotometer U-5100 at the wavelength λ = 517 nm. Trolox (6-hydroxy-2,5,7,8-tetramethylchroman-2-carboxylic acid) was used as a reference substance. The antioxidant activity was expressed as %RSA and mmol Trolox dm^−3. […]. Blank samples without antioxidant were prepared in the same way. The tubes were wrapped in aluminum foil and were sealed with a stopper and then incubated for 10 min at room temperature. After this time, spectrophotometric measurements were carried out in triplicate. For determination of antioxidant activity of the acceptor fluid after 24 h of permeation and solutions obtained by extraction of the skin obtained after penetration study, 0.15 mL samples of each solutions were separately added to 2.85 mL of DPPH solution and spectrophotometric measurements were performed. The antioxidant activity was expressed as mmol Trolox·dm^−3.
(§2) The permeation experiments were performed using Franz diffusion cells (Phoenix DB-6, ABL&E-JASCO, Wien, Austria). The diffusion was 1 cm^2. The volume of the acceptor chamber was 8 mL. This chamber was filled with PBS solution (pH 7.4). During experiment, a constant temperature of 37.0 ± 0.5 °C was maintained in each diffusion unit. The acceptor chamber content was stirred with a magnetic stirring bar at the same speed for all cells. The prepared pig skin was mounted on each donor chamber. As previously mentioned, only undamaged skin pieces with an even thickness were chosen for experiments. Thereafter, the hydrogel or emulsion vehicle/preparation in 1 g portion was put on the skin in donor cells. For comparison, 1 mL ethanolic solution containing either FA or its derivatives was applied to another donor chamber. The amount of the FA and its derivatives applied on the skin expressed as the mass of ferulic acid was 0.01 g and was the same for each carrier. The penetration experiments were carried out for 24 h. The samples were collected after 1 h, 2 h, 3 h, 4 h, 5 h, 6 h, 8 h, and 24 h. Aliquots of the acceptor fluid (0.5 mL) were withdrawn and to each acceptor chamber the same volume of fresh PBS solution was added. The FA and its derivatives’ concentrations in the acceptor fluid were measured by HPLC method (Section 2.6.2). The cumulative mass (µg·cm^−2) and penetration rate (µg·cm^−2·h^−1) were calculated. The acceptor fluid collected after 24 h of permeation was also measured for antioxidant activity and total polyphenol content (as described in Section 2.5.1 and Section 2.5.2).

[2] = DPPH radical scavenging assay of the compounds
Protocol: as §1

NRK-52E cells = system: NRK-52E cells; parameters: method as in doi:10.1016/j.jddst.2022.103621; details: 75 μM, high glucose environment; cited from earlier work
L929 cells = system: L929 cells; parameters: method as in PMID 32485864; details: L929, 24 h, 2.5–40 mg L^−1, MTT assay; cited from earlier work
diabetic rats = system: diabetic rats; parameters: method as in doi:10.1016/j.jddst.2022.103621; details: 50 mg kg^−1 body wt., orally for 8 weeks; cited from earlier work
[3] = Thermogravimetric (TG) analysis, thermal stability; assay type: physicochemical
Protocol: Samples of 2–5 mg, loaded in aluminium crucibles, were heated from 30 °C to 600 °C at the heating rate of 10 °C·min^−1, in the air atmosphere (25 mL·min^−1) with nitrogen flow (10 mL·min^−1) as the purge gas.

3T3-L1 cells = system: 3T3-L1 cells; parameters: method as in PMID 29077251; details: 3T3-L1, 500 μg mL^−1; cited from earlier work
[4] = Skin permeation in Franz diffusion cells; assay type: in vitro ADME, pig; details: 24 h, 10 mg as FA applied
Protocol: In the experiment, abdominal porcine skin coming from the local slaughterhouse was used. Pig skin was chosen because of its similar permeability to human skin [34, 35]. The fresh abdominal porcine skin was washed several times in PBS buffer pH 7.4. The skin of 0.5 mm in thickness was dermatomed and divided into 2 cm × 2 cm pieces. The skin samples were wrapped in aluminum foil and stored at −20 °C until use, not longer than 3 months. According to Badran et al., this storage time at this temperature is safe to keep skin barrier properties. Immediately before the experiment, the skin samples were slowly thawed at room temperature for 30 min and then were hydrated by PBS pH 7.4 [37, 38, 39, 40]. Such prepared skin was mounted on donor chamber. Only the undamaged skin pieces with an even thickness were chosen for experiments. The integrity of the skin was checked by impedance measurement using an LCRmeter4080 (Conrad Electronic, Hirschau, Germany), operated in parallel mode at an alternating frequency of 120 Hz (error at kΩ values < 0.5%). The tips of measuring probes were immersed in the donor and acceptor chamber containing PBS (pH 7.4), as described previously. Only skin samples of impedance > 3 kΩ were applied as such impedance is similar to the electrical resistance of human skin [42].
The concentration of FA and its derivatives in the acceptor fluid and in the fluid obtained by skin extraction after permeation experiment was assessed using liquid chromatography system (Knauer, Berlin, Germany) consisting of a model 2600 UV detector, Smartline model 1050 pump and Smartline model 3950 autosampler. HPLC was controlled by ClarityChrom 2009 software. The detector was operated at 280 nm. The separations were performed on 125 mm × 4 mm ID chromatographic column filled with Hyperisil ODS (C18), particle size 5 µm, in isocratic mode. The mobile phase consisted of acetonitrile, 1% acetic acid, and MeOH (47/47/6 v/v/v) and was pumped at flow rate of 1 mL min^−1. The column temperature was set at 25 °C, and the injection volume was 20 µL.
as §2

[5] = molar ratio antioxidant:DPPH 0.1, 10 min, listed as FA
[6] = molar ratio antioxidant:DPPH 1.0, 10 min
[7] = molar ratio antioxidant:DPPH 2.0, 10 min, listed as FA

COc1cc(/C=C/C(=O)O)ccc1O [Ferulic acid]
DPPH antioxidant activity of the acceptor fluid ([1]; emulsion): 0.057 ± 0.004 a mmol Trolox dm^−3 | DPPH antioxidant activity of the acceptor fluid ([1]; ethanol solution, listed as FA): 0.079 ± 0.010 mmol Trolox dm^−3 and 0.079 ± 0.010 a mmol Trolox dm^−3 | DPPH antioxidant activity of the acceptor fluid ([1]; hydrogel): 0.067 ± 0.004 a mmol Trolox dm^−3 | Antioxidant activity %RSA [2, 5]: 12.4 ± 0.001 %RSA and 12.4 ± 0.001 a %RSA | Antioxidant activity, Trolox equivalents [2, 5]: 0.049 ± 0.001 mmol Trolox dm^−3 and 0.049 ± 0.001 a mmol Trolox dm^−3 | Antioxidant activity %RSA [2, 6]: 73.2 ± 0.001 b %RSA | Antioxidant activity, Trolox equivalents [2, 6]: 0.635 ± 0.001 b mmol Trolox dm^−3 | Antioxidant activity %RSA [2, 7]: 86.5 ± 0.001 %RSA and 86.5 ± 0.001 b %RSA | Antioxidant activity, Trolox equivalents [2, 7]: 0.763 ± 0.001 mmol Trolox dm^−3 and 0.763 ± 0.001 b mmol Trolox dm^−3 | effect in cultured NRK-52E cells (NRK-52E cells): countered excessive ROS generation, induced autophagy, and inhibited apoptotic death of cells | effect on cell viability/proliferation (L929 cells): no effect on cell viability/proliferation | effect in diabetic rats (diabetic rats): markedly ameliorated kidney injury, renal cell apoptosis, inflammation, and defective autophagy in the kidneys | Td onset, the onset of decomposition ([3]; TG, air atmosphere, 10 °C·min^−1): 217.0 °C | Td max, temperature of the fastest mass loss of the sample ([3]; TG/DTG, air atmosphere, 10 °C·min^−1): 251.2 °C | Temperature range of decomposition (main weight loss) ([3]; according to the DTG curve): 175–300 °C | toxicity on normal cells (3T3-L1 cells): did not cause any toxicity | Cumulative Permeation Mass ([4]; from emulsion): 104.93 ± 7.63 a µg FA·cm^−2 | Cumulative Permeation Mass ([4]; from hydrogel): 289.36 ± 38.50 a µg FA·cm^−2 | Cumulative Permeation Mass ([4]; from solution in 70% (v/v) ethanol): 368.57 ± 2.94 a µg FA·cm^−2
